Laboratory results reported in US7101878B1 (Agouron Pharmaceuticals, Inc., priority 1998, dated 2006).

The compounds below were run against T1, mouse GnRH receptor (Mus musculus, UniProt Q01776) (assay: Radioligand binding, 125I-GnRH-A, 293 cells expressing mouse GnRH receptors). Details: 10 uM; read-out: % Inhib. @ 10 uM mGnRH.
T1 construct: expressed in transfected cells; host or cells: 293 cells
T1 sequence (Q01776 1-327): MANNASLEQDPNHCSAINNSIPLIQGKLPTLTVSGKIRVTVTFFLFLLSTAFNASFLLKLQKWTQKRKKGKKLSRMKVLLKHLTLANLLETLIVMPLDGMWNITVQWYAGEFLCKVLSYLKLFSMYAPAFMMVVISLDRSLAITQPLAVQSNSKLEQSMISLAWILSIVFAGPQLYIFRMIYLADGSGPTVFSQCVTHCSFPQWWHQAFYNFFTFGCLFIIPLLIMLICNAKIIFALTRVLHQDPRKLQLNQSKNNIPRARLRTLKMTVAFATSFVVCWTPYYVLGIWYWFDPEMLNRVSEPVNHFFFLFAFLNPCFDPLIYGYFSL
Protocol: All compounds were diluted in 1% DMSO (final assay concentration) in binding assay buffer. […] Reactions were terminated by rapid filtration onto 96-well Packard GF/C filters soaked in 0.1% polyethyleneimine. Filters were washed three times with PBS buffer, dried and counted on a Packard Topcount by liquid scintillation counting.
Assay conditions were identical for assessing compound activities at other species. […] IC50 values for control peptides and test compounds were calculated utilizing GraphPad Prism™ software.
The reaction mixture was vortexed and incubated for 1 min at room temperature. After one min, the mixture was vortexed and allowed to incubate for an additional minute. 2 ml of 0.5 M acetic acid/1% BSA was added to the reaction tube and the mixture was added to a C18 Sep-Pak cartridge. The cartridge was washed with subsequent washes of 5 ml H2O and 5 ml 0.5M acetic acid and then eluted with 5×1 ml of 60% CH3CN/40% 0.5M acetic acid. The eluate was diluted with 3× volume of HPLC buffer A (0.1% TFA in H2O) and loaded onto a C18 column. […] The radioactive fractions (750 ed/fraction) are collected into clean polypropylene tubes containing 100 μl of 10% BSA. Fractions were assessed for biological activity by radioligand binding.

SMILES	inhibition at 10 µM
Cc1cc2c(cc1Cc1ccc(C(=O)N(CCCCO)Cc3ccccc3)o1)C(C)(C)CCC2(C)C	99%
Cc1cc2c(cc1Cc1ccc(C(=O)N3Cc4ccccc4CC3C(=O)NCC(c3ccccc3)c3ccccc3)o1)C(C)(C)CCC2(C)C (centres unmarked)	9%
Cc1cc2c(cc1Cc1ccc(C(=O)NCC(O)CO)o1)C(C)(C)CCC2(C)C (centres unmarked)	14%
CCCN(CC1CC1)C(=O)c1ccc(Cc2cc3c(cc2C)C(C)(C)CCC3(C)C)o1	96%
Cc1cc2c(cc1Cc1ccc(C(=O)N(Cc3cccnc3)Cc3cccc4ccccc34)o1)C(C)(C)CCC2(C)C	79%
Cc1cc2c(cc1Cc1ccc(C(=O)N(Cc3cccnc3)Cc3ccc(Cl)c(Cl)c3)o1)C(C)(C)CCC2(C)C	79%
Cc1cc2c(cc1Cc1ccc(C(=O)N(Cc3cccnc3)Cc3ccoc3)o1)C(C)(C)CCC2(C)C	99%
CCCCC(CC)COCCCNC(=O)c1ccc(Cc2cc3c(cc2C)C(C)(C)CCC3(C)C)o1 (centres unmarked)	58%
Cc1cc2c(cc1Cc1ccc(C(=O)N(CCO)CCO)o1)C(C)(C)CCC2(C)C	34%
Cc1cc2c(cc1Cc1ccc(C(=O)N(Cc3ccccc3Cl)C3CCN(Cc4ccccc4)CC3)o1)C(C)(C)CCC2(C)C	43%
CCCCCNC(=O)c1ccc(Cc2cc3c(cc2C)C(C)(C)CCC3(C)C)o1	91%
Cc1cc2c(cc1Cc1ccc(C(=O)NCCN(C(C)C)C(C)C)o1)C(C)(C)CCC2(C)C	102%
Cc1ccc(CN(CCc2ccc(Cl)cc2Cl)C(=O)c2ccc(Cc3cc4c(cc3C)C(C)(C)CCC4(C)C)o2)cc1	23%
CCN(Cc1ccccc1F)C(=O)c1ccc(Cc2cc3c(cc2C)C(C)(C)CCC3(C)C)o1	86%
Cc1cc2c(cc1Cc1ccc(C(=O)N(CCN3CCCC3)Cc3cccc(Oc4cccc(C(F)(F)F)c4)c3)o1)C(C)(C)CCC2(C)C	99%
Cc1cc2c(cc1Cc1ccc(C(=O)N(Cc3cccc(Oc4cccc(C(F)(F)F)c4)c3)CC(C)(C)CN(C)C)o1)C(C)(C)CCC2(C)C	89%

SMILES	inhibition at 10 µM
Cc1cc2c(cc1Cc1ccc(C(=O)N(C)C3CCN(Cc4ccccc4)C3)o1)C(C)(C)CCC2(C)C (centres unmarked)	98%
COc1ccc(CCN(CC(C)C)C(=O)c2ccc(Cc3cc4c(cc3C)C(C)(C)CCC4(C)C)o2)cc1OC	90%
Cc1cc2c(cc1Cc1ccc(C(=O)N(Cc3ccncc3)Cc3ccc4c(c3)OCO4)o1)C(C)(C)CCC2(C)C	91%
COc1cc(CN(Cc2ccncc2)C(=O)c2ccc(Cc3cc4c(cc3C)C(C)(C)CCC4(C)C)o2)ccc1OCc1ccccc1	64%
Cc1cc2c(cc1Cc1ccc(C(=O)N(Cc3cccnc3)CC(C)c3ccccc3)o1)C(C)(C)CCC2(C)C (centres unmarked)	97%
Cc1cc2c(cc1Cc1ccc(C(=O)NC(CO)CO)o1)C(C)(C)CCC2(C)C	22%
CCN(CC)CCN(CC)C(=O)c1ccc(Cc2cc3c(cc2C)C(C)(C)CCC3(C)C)o1	98%
Cc1cc2c(cc1Cc1ccc(C(=O)N(CCC#N)C3CCCC3)o1)C(C)(C)CCC2(C)C	88%
COc1cc2c(cc1OC)C(c1cccc(Br)c1)N(C(=O)c1ccc(Cc3cc4c(cc3C)C(C)(C)CCC4(C)C)o1)CC2 (centres unmarked)	-23%
CCN(CC)CCCC(C)NC(=O)c1ccc(Cc2cc3c(cc2C)C(C)(C)CCC3(C)C)o1 (centres unmarked)	99%
CCN(C(=O)c1ccc(Cc2cc3c(cc2C)C(C)(C)CCC3(C)C)o1)C1C2CCC3CC32C1c1ccccc1 (centres unmarked)	49%
Cc1cc2c(cc1Cc1ccc(C(=O)N3CCc4c([nH]c5ccccc45)C3)o1)C(C)(C)CCC2(C)C	44%
Cc1cc2c(cc1Cc1ccc(C(=O)N(C)Cc3cccc4ccccc34)o1)C(C)(C)CCC2(C)C	51%
Cc1cc2c(cc1Cc1ccc(C(=O)N3CCCC(C(=O)NC(c4ccccc4)c4ccccc4)C3)o1)C(C)(C)CCC2(C)C (centres unmarked)	9%
Cc1cc2c(cc1Cc1ccc(C(=O)N(Cc3ccccc3)Cc3ccccn3)o1)C(C)(C)CCC2(C)C	98%

Other lines, results leading:

inhibition at 10 µM	SMILES
21%	CCN(CC)C(=O)C1CCCN(C(=O)c2ccc(Cc3cc4c(cc3C)C(C)(C)CCC4(C)C)o2)C1 (centres unmarked)
84%	Cc1cc2c(cc1Cc1ccc(C(=O)N3CCCCC3CO)o1)C(C)(C)CCC2(C)C (centres unmarked)
100%	Cc1cc2c(cc1Cc1ccc(C(=O)N3CCCCC3CCO)o1)C(C)(C)CCC2(C)C (centres unmarked)
66%	Cc1cc2c(cc1Cc1ccc(C(=O)N3CCN(CCCO)CC3)o1)C(C)(C)CCC2(C)C
86%	Cc1cc2c(cc1Cc1ccc(C(=O)N3CCN(C/C=C/c4ccccc4)CC3)o1)C(C)(C)CCC2(C)C
82%	Cc1cc2c(cc1Cc1ccc(C(=O)N[C@H]3CC[C@@H](O)CC3)o1)C(C)(C)CCC2(C)C
63%	CC(=O)NC1CCN(C(=O)c2ccc(Cc3cc4c(cc3C)C(C)(C)CCC4(C)C)o2)C1 (centres unmarked)
91%	CCN1CC(NC(=O)c2ccc(Cc3cc4c(cc3C)C(C)(C)CCC4(C)C)o2)CN1CC
66%	CCOC(=O)CN1CCN(C(=O)c2ccc(Cc3cc4c(cc3C)C(C)(C)CCC4(C)C)o2)CC1
89%	Cc1cc2c(cc1Cc1ccc(C(=O)N(C)C3CCN(C)C3)o1)C(C)(C)CCC2(C)C (centres unmarked)
73%	COc1ccc(N2CCN(C(=O)c3ccc(Cc4cc5c(cc4C)C(C)(C)CCC5(C)C)o3)CC2C)cc1 (centres unmarked)
100%	Cc1cc2c(cc1Cc1ccc(C(=O)N3CCCCC3C)o1)C(C)(C)CCC2(C)C (centres unmarked)
97%	Cc1cc2c(cc1Cc1ccc(C(=O)N3CCN(CCc4ccccc4)CC3)o1)C(C)(C)CCC2(C)C
73%	Cc1cc2c(cc1Cc1ccc(C(=O)NC3CCCC3)o1)C(C)(C)CCC2(C)C
97%	Cc1cc2c(cc1Cc1ccc(C(=O)N(C)C3CCCCC3)o1)C(C)(C)CCC2(C)C
74%	Cc1cc2c(cc1Cc1ccc(C(=O)N3CCC[C@H]3C(N)=O)o1)C(C)(C)CCC2(C)C
100%	CCC1CCCCN1C(=O)c1ccc(Cc2cc3c(cc2C)C(C)(C)CCC3(C)C)o1 (centres unmarked)
75%	Cc1ccc(N2CCN(C(=O)c3ccc(Cc4cc5c(cc4C)C(C)(C)CCC5(C)C)o3)CC2)cc1C
101%	Cc1cc2c(cc1Cc1ccc(C(=O)NC(CO)C(C)(C)C)o1)C(C)(C)CCC2(C)C (centres unmarked)
49%	Cc1cc2c(cc1Cc1ccc(C(=O)NCC[N+](C)(C)C)o1)C(C)(C)CCC2(C)C

inhibition at 10 µM	SMILES
88%	CCOC(=O)CC(C)NC(=O)c1ccc(Cc2cc3c(cc2C)C(C)(C)CCC3(C)C)o1 (centres unmarked)
64%	Cc1cc2c(cc1Cc1ccc(C(=O)NC3CCC(C)CC3)o1)C(C)(C)CCC2(C)C (centres unmarked)
25%	CCOC(=O)CC(C)(NC(N)=O)NC(=O)c1ccc(Cc2cc3c(cc2C)C(C)(C)CCC3(C)C)o1 (centres unmarked)
69%	Cc1cc2c(cc1Cc1ccc(C(=O)N3CCCC(C(N)=O)C3)o1)C(C)(C)CCC2(C)C (centres unmarked)
92%	Cc1cc2c(cc1Cc1ccc(C(=O)N3CCC(N4CCCCC4)CC3)o1)C(C)(C)CCC2(C)C
72%	Cc1cc2c(cc1Cc1ccc(C(=O)N3CCC(O)(c4ccccc4)CC3)o1)C(C)(C)CCC2(C)C
40%	Cc1cc2c(cc1Cc1ccc(C(=O)N3CCC(C#N)(c4ccccc4)CC3)o1)C(C)(C)CCC2(C)C
4%	Cc1cc2c(cc1Cc1ccc(C(=O)N3CCN(C(c4ccccc4)c4ccc(Cl)cc4)CC3)o1)C(C)(C)CCC2(C)C (centres unmarked)
16%	Cc1cc2c(cc1Cc1ccc(C(=O)N3CCN(C(c4ccc(F)cc4)c4ccc(F)cc4)CC3)o1)C(C)(C)CCC2(C)C
94%	CCOC(=O)C1CCCCN1C(=O)c1ccc(Cc2cc3c(cc2C)C(C)(C)CCC3(C)C)o1 (centres unmarked)
67%	Cc1cc2c(cc1Cc1ccc(C(=O)N3CCC(O)(Cc4ccccc4)CC3)o1)C(C)(C)CCC2(C)C
26%	COC(=O)C1CN(C(=O)c2ccc(Cc3cc4c(cc3C)C(C)(C)CCC4(C)C)o2)CC(C)C1=O (centres unmarked)
71%	CCOC(=O)C1CN(C(=O)c2ccc(Cc3cc4c(cc3C)C(C)(C)CCC4(C)C)o2)CCC1=O (centres unmarked)
28%	Cc1cc2c(cc1Cc1ccc(C(=O)N3CCCCC3C[C@H]3CCCN3C)o1)C(C)(C)CCC2(C)C (some centres unmarked)
90%	Cc1cc2c(cc1Cc1ccc(C(=O)N3CCN(C(=O)OC(C)(C)C)CC3)o1)C(C)(C)CCC2(C)C
103%	Cc1cc2c(cc1Cc1ccc(C(=O)N3CCCCC3CCN3CCCCC3)o1)C(C)(C)CCC2(C)C (centres unmarked)
95%	CCC1CCC(C)N(C(=O)c2ccc(Cc3cc4c(cc3C)C(C)(C)CCC4(C)C)o2)C1 (centres unmarked)
73%	Cc1cc2c(cc1Cc1ccc(C(=O)N3CCN(CCN4CCOCC4)CC3)o1)C(C)(C)CCC2(C)C
96%	Cc1cc2c(cc1Cc1ccc(C(=O)N3CCN(CCCN(C)C)CC3)o1)C(C)(C)CCC2(C)C
101%	C#CCN(CCC)CCN1CCN(C(=O)c2ccc(Cc3cc4c(cc3C)C(C)(C)CCC4(C)C)o2)CC1
